Laboratory results published in patent US7968604B2, “Pharmaceutical composition for prevention and treatment of drug or alcohol addiction or bipolar disorder using sodium phenylbutyrate” (priority 2005, dated 2011).

Legend:
Format in all cases: in vivo, Sprague-Dawley rats
locomotor activity = locomotor activity after sodium phenylbutyrate alone daily for 7 days; settings: rats, 0.1 and 1.0 mg/kg i.p. once a day for 7 days, measured day 1 and day 7
Procedure: In order to examine effects of a pharmaceutical composition for prevention and treatment of drug or alcohol addiction or bipolar disorder containing sodium phenylbutyrate (PBA) in accordance with the present invention, the following animal experiments were carried out using Sprague-Dawley rats, weighing 250-275 g (upon arrival), (Samtaco Animal Breeding Company, Osan, Korea). A bank of 12 activity boxes was used to measure locomotor activity of animals (Kim & Vezina, 1998). Each box (22×43×33 cm) estimated locomotor activity from photo beam interruptions. Rats were placed in the activity boxes for a 1-hour habituation period. Then, these rats were administered with the respective dosages of the pharmaceutical composition and were immediately placed again in the activity boxes, and locomotor activity and rearing activity of rats were measured for additional 2 hours. Specifically, a computer was adapted to count locomotion of rats via photo beams installed on the top/bottom and right/left of the activity boxes, and such locomotion behavior of rats was confirmed for two hours. Rearing activity was also measured by counting upward/downward motion of rats via photo beams installed in the activity boxes. […] On day 1 and day 7 of drug administration, locomotor activity of animals was measured. […]

[1] = tested on: amphetamine-induced behavioral sensitization; test: amphetamine-induced behavioral sensitization (chronic) in rats
Procedure: In order to examine effects of a pharmaceutical composition for prevention and treatment of drug or alcohol addiction or bipolar disorder containing sodium phenylbutyrate (PBA) in accordance with the present invention, the following animal experiments were carried out using Sprague-Dawley rats, weighing 250-275 g (upon arrival), (Samtaco Animal Breeding Company, Osan, Korea). A bank of 12 activity boxes was used to measure locomotor activity of animals (Kim & Vezina, 1998). Each box (22×43×33 cm) estimated locomotor activity from photo beam interruptions. Rats were placed in the activity boxes for a 1-hour habituation period. Then, these rats were administered with the respective dosages of the pharmaceutical composition and were immediately placed again in the activity boxes, and locomotor activity and rearing activity of rats were measured for additional 2 hours. Specifically, a computer was adapted to count locomotion of rats via photo beams installed on the top/bottom and right/left of the activity boxes, and such locomotion behavior of rats was confirmed for two hours. Rearing activity was also measured by counting upward/downward motion of rats via photo beams installed in the activity boxes. […]

[2] = tested on: amphetamine-induced locomotor activity; test: amphetamine-induced (acute) locomotor activity in rats
Procedure: In order to examine effects of a pharmaceutical composition for prevention and treatment of drug or alcohol addiction or bipolar disorder containing sodium phenylbutyrate (PBA) in accordance with the present invention, the following animal experiments were carried out using Sprague-Dawley rats, weighing 250-275 g (upon arrival), (Samtaco Animal Breeding Company, Osan, Korea). A bank of 12 activity boxes was used to measure locomotor activity of animals (Kim & Vezina, 1998). Each box (22×43×33 cm) estimated locomotor activity from photo beam interruptions. Rats were placed in the activity boxes for a 1-hour habituation period. Then, these rats were administered with the respective dosages of the pharmaceutical composition and were immediately placed again in the activity boxes, and locomotor activity and rearing activity of rats were measured for additional 2 hours. […] Rearing activity was also measured by counting upward/downward motion of rats via photo beams installed in the activity boxes. […] Similar to Example 1, different concentrations (0.1, 1.0 and 10.0 mg/kg) of sodium phenylbutyrate were intraperitoneally injected (acute) alone or in combination with amphetamine (1.5 mg/kg) into rats, and locomotor activity of animals was measured for 2 hours. […]

[3] = tested on: cocaine-induced locomotor activity and rearing; test: cocaine-induced (acute) locomotor activity and rearing in rats
Procedure: In order to examine effects of a pharmaceutical composition for prevention and treatment of drug or alcohol addiction or bipolar disorder containing sodium phenylbutyrate (PBA) in accordance with the present invention, the following animal experiments were carried out using Sprague-Dawley rats, weighing 250-275 g (upon arrival), (Samtaco Animal Breeding Company, Osan, Korea).
A bank of 12 activity boxes was used to measure locomotor activity of animals (Kim & Vezina, 1998). Each box (22×43×33 cm) estimated locomotor activity from photo beam interruptions. Rats were placed in the activity boxes for a 1-hour habituation period. Then, these rats were administered with the respective dosages of the pharmaceutical composition and were immediately placed again in the activity boxes, and locomotor activity and rearing activity of rats were measured for additional 2 hours. […] Rearing activity was also measured by counting upward/downward motion of rats via photo beams installed in the activity boxes. […]
Different concentrations (0.1, 1.0, 5.0 and 10.0 mg/kg) of sodium phenylbutyrate were intraperitoneally injected (acute) alone or in combination with cocaine (15 mg/kg) into rats, and locomotor activity and rearing of animals were measured for 2 hours. […]

In the case of `O=C(O)CCCc1ccccc1` [sodium phenylbutyrate], the “changes in locomotor activity on administration of sodium phenylbutyrate alone” value (locomotor activity) is reported as “does not result in any significant changes in locomotor activity of animals”, the “effect on amphetamine-induced behavioral sensitization” value ([1]; rats, 0.1, 1.0 and 10.0 mg/kg with amphetamine 1.5 mg/kg four times at 2 to 3 day intervals, one-week withdrawal, amphetamine challenge) is reported as “significant blocking effects against amphetamine-induced behavioral sensitization” and the “dose range at which blocking of behavioral sensitization was particularly strong” value ([1]; rats, repeated co-administration with amphetamine 1.5 mg/kg) is reported as 0.1 to 1.0 mg/kg. For the same compound, the “effect on increase in amphetamine-induced locomotor activity” value ([2]; i.p. acute, 0.1, 1.0 and 10.0 mg/kg with amphetamine 1.5 mg/kg, measured 2 hours) was “decrease an increase in amphetamine-induced locomotor activity”, the “dose range at which effects on amphetamine-induced locomotor activity were similarly exhibited” value ([2]; i.p. acute, with amphetamine 1.5 mg/kg) was 0.1 to 10.0 mg/kg and the “effect on increase in cocaine-induced locomotor activity and rearing” value ([3]; i.p. acute, 0.1, 1.0, 5.0 and 10.0 mg/kg with cocaine 15 mg/kg, measured 2 hours) was “reduce an increase in cocaine-induced locomotor activity and rearing of rats in a dose-dependent manner”. The “dose at which effects on cocaine-induced locomotor activity and rearing were greatest” value ([3]; i.p. acute, with cocaine 15 mg/kg) was 1.0 mg/kg.
